The results in this text go back to PubChem BioAssay AID2060491 (Molecular Pharmacology Branch, DTP, NCI, 2025).

The test deals with 857933-349-R-J2-PDC complex spheroids, viability. As to the kind of experiment: Anticancer human tumor 857933-349-R-J2-PDC patient-derived colon adenocarcinoma cell line growth inhibition [GQUAD]. Particulars: for viability, T/C: stronger effect = lower value. The text has this:
DNA G-quadruplex Stabilizer Agents in Combinations in Complex Spheroids
A high-throughput screen of multi-cell type tumor spheroids was designed to identify active combinations of DNA G-quadruplex stabilizer agents and targeted small molecules. Complex spheroids include a stromal component modeled by human endothelial cells (HUVEC) and fibroblasts modeled by human mesenchymal stem cells (MSCs). The concentration ranges selected for each drug and investigational agent were based upon clinically achievable concentrations if the clinical Cmax of the agent was known.
Compounds. The drugs and investigational agents: pidnarulex (CX-5461; NSC782164), APTO-253 (NSC789042), BRACO-19 (NSC847499), peposertib (NSC802822), ceralasertib (NSC780249), elimusertib (NSC800525), camonsertib (NSC841442), AZD-1390 (NSC803789), olaparib (NSC753686), talazoparib (NSC767125), ART-558 (NSC835418), sotorasib (NSC818433), MRTX-1133 (NSC836407), SN-38 (NSC673596), topotecan (NSC609699), etoposide (NSC141540), doxorubicin (NSC123127), gemcitabine (NSC613327), 5-fluorouracil (NSC19893), paclitaxel (NSC125973), vemurafenib (NSC761431), panobinostat (NSC761190), R-306465 (JNJ-16241199; NSC773264), adavosertib (NSC754352), TP-3654 (NSC805149), carboplatin (NSC241240), KSQ-4279 (NSC840948), and staurosporine (NSC755774) were obtained from the National Cancer Institute (NCI) Developmental Therapeutics Program Chemical Repository (34). The FDA-approved anticancer drug set is available from the NCI Developmental Therapeutics Program. […] The stock solutions were prepared in dimethyl sulfoxide (DMSO, Sigma-Aldrich, St. Louis, MO, cat. D2650) at 800-fold the tested concentration and stored at -70 degrees C prior to their use. All drugs and investigational agents were tested over a range starting from a high concentration at or near the clinical Cmax and decreasing in half-log increments. If the clinical Cmax for an agent had not been determined, the highest concentration tested was 10 microM.
2.3 Cell Culture. All cells were maintained in an incubator at 37 degrees C and 5% CO2 with 95% humidity. The PDC lines were cultured according to standard operating procedures established by the NCI PDMR. All PDCs were thawed and cultured in Matrigel-coated flasks prepared with a working solution of 1X Ham's F-12 nutrient mix, without supplementation (Invitrogen, cat. 11765054), 100 U/mL penicillin-streptomycin (Invitrogen, cat. 15140122), and 2.5% Matrigel (Corning Inc., cat. 354248) for the first three passages. The 857933-349-R-J2-PDC line was cultured in 6C/Colon 1B media, which includes advanced DMEM/F-12 (Thermo Fisher Scientific, cat. 12634028), 10 mM HEPES (Thermo Fisher Scientific, cat. 15630080), 1X GlutaMAX supplement (Thermo Fisher Scientific, cat. 35050061), 0.1 mg/mL primocin (InvivoGen, cat. ant-pm-2), 10% defined fetal bovine serum, heat inactivated (HyClone Laboratories Inc., cat. SH30070.03HI), 50% L-WRN conditioned media (ATCC, cat. CRL-3276), 1.25 mM N-Acetyl-L-cysteine (Sigma-Aldrich, cat. A9165), 10 mM nicotinamide (Sigma-Aldrich, cat. N0636), 1X B-27 supplement (Thermo Fisher Scientific, cat. 17504044), 1X N-2 supplement (Thermo Fisher Scientific, cat. 17502048), 10 microM Y-27632 dihydrochloride (Tocris Bioscience, cat. 1254), and 50 ng/mL human EGF recombinant protein (Thermo Fisher Scientific, cat. PHG0311). The 485176-168-R4-J1-PDC line was cultured in Panc media, which includes all 6C/Colon 1B media components plus 100 ng/mL human FGF-10 (Thermo Fisher Scientific, cat. 100-26), 500 nM SB-431542 (Selleckchem, cat. S1067), and gastrin (Tocris, cat. 3006).
[…]

Setting [1] is: compound alone, run of 02/20/2024.

“And” between values parts separate entries of the source, which are not always exact repeats. Equal values may be shown once.
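Further: spheroids exposed to compounds for one week before readout.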
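Wherever viability, T/C is given: percent viability relative to vehicle DMSO wells taken as 100%.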

The term viability, T/C denotes the ratio of treated to control. As usually defined, the IC50 is the concentration that inhibits the measured activity by half. Regarding `COc1ccc([C@@H](O)c2cc(-c3ncnc4cc(N5CCOCC5)ccc34)c(F)cc2Cl)nn1`, the viability, T/C is 106% and 108% and 100% (compound 0.0316 µM); 90.5% and 103% and 89.7% (compound 0.1 µM); 105% (2×) and 86% (compound 0.316 µM); 82.6% and 98.4% and 79.4% (compound 1 µM); 70.2% and 85.2% and 62% (compound 3.16 µM); 56.8% and 59.8% and 48.4% (compound 10 µM). For the same compound, under “curve of compound”, the IC50 is > 10000 nM and 8850 nM.

Turning to `COc1cccc2c1C(=O)c1c(O)c3c(c(O)c1C2=O)CC(O)(C(=O)CO)CC3OC1CC(N)C(O)C(C)O1` (stereo unspecified), the viability, T/C runs as follows: (compound 0.0316 µM) 84.6% and 101% and 86.6%; (compound 0.1 µM) 60% and 94.5% and 51.8%; (compound 0.316 µM) 57.6% and 71.5% and 49.7%; (compound 1 µM) 43.2% and 45.9% and 44.8%; (compound 3.16 µM) 7.65% and 8.98% and 6.13%; (compound 10 µM) 0.27% and 0.59% and 0.13%. Also, under “curve of compound”, the IC50 is 415 nM and 751 nM and 277 nM.

On to `Cc1[nH]c2ccc(F)cc2c1-c1nc2c3cccnc3c3ncccc3c2[nH]1`, for which the viability, T/C was 106% [middle of 12 runs] (compound 0.0316 µM); 107% [middle of 12 runs] (compound 0.1 µM); 103% [middle of 12 runs] (compound 0.316 µM); 104% [middle of 12 runs] (compound 1 µM); 92.1% [middle of 12 runs] (compound 3.16 µM); 95.5% [middle of 12 runs] (compound 10 µM). Moreover, the IC50 is more than 10000 nM under setting [1] and more than 10000 nM (compound alone, run of 02/26/2024).

Regarding `Cc1[nH]c2ccccc2c1CCNCc1ccc(/C=C/C(=O)NO)cc1`, the viability, T/C is 100% and 105% (2×) (compound 0.000999 µM); 102% (2×) and 105% (compound 0.00316 µM); 102% and 112% and 104% (compound 0.00999 µM); 107% and 104% and 96.4% (compound 0.0316 µM); 102% (2×) and 94.5% (compound 0.0999 µM); 53% and 66.9% and 44.9% (compound 0.316 µM). For the same compound, the 50% inhibitory concentration (IC50) (curve of compound) is > 316 nM and 283 nM.

Regarding `Cc1cccc(N(C)C(=O)C2C(O)CCN2c2nc(C)cc(C(F)(F)F)c2C#N)c1` (stereo unspecified), the viability, T/C by setting is: (compound 0.0316 µM) 104% and 102% and 105%; (compound 0.1 µM) 93.1% and 96.1% and 98.8%; (compound 0.316 µM) 107% and 103% and 101%; (compound 1 µM) 91.1% and 105% and 94.8%; (compound 3.16 µM) 114% and 105% and 106%; (compound 10 µM) 91.3% and 104% and 91.7%. Also, the IC50 (curve of compound) is more than 10000 nM.

With `Cc1cnc(CNC(=O)c2c(=O)c3ccc(N4CCCN(C)CC4)nc3n3c2sc2ccccc23)cn1`, the viability, T/C was 92.5% [middle of 12 runs] (compound 0.0316 µM); 69.2% [middle of 11 runs] (compound 0.1 µM); 26.9% [middle of 12 runs] (compound 0.316 µM); 5.05% [middle of 12 runs] (compound 1 µM); 2.9% [middle of 12 runs] (compound 3.16 µM); 1.41% [middle of 12 runs] (compound 10 µM). The IC50 under setting [1] was 169 nM [middle of 10 runs].

Turning to `Cn1ncnc1[C@H]1c2n[nH]c(=O)c3cc(F)cc(c23)N[C@@H]1c1ccc(F)cc1`, the viability, T/C (compound 0.000999 µM) is 102% and 99.8% and 101%; the viability, T/C (compound 0.00316 µM) was 99.8% and 104% and 94%; the viability, T/C (compound 0.00999 µM) is 99.8% and 105% and 98.9%; the viability, T/C (compound 0.0316 µM) was 94.3% and 104% and 94.9%; the viability, T/C (compound 0.0999 µM) is 97.9% and 101% and 106%; the viability, T/C (compound 0.316 µM) was 96.8% and 101% and 85.9%. Moreover, the IC50 (curve of compound) was more than 316 nM.

With `Nc1ccn(C2OC(CO)C(O)C2(F)F)c(=O)n1` (stereo unspecified), the viability, T/C was 75.3% and 98.5% and 97.2% (compound 0.0316 µM); 43.2% and 80.9% and 48.4% (compound 0.1 µM); 45.5% and 58.7% and 54.6% (compound 0.316 µM); 12.3% and 22.7% and 10.3% (compound 1 µM); 8.31% and 14.9% and 6.52% (compound 3.16 µM); 6.59% and 14.8% and 5.26% (compound 10 µM). Moreover, where the note is “curve of compound”, the IC50 is 105 nM and 386 nM and 161 nM.

In the case of `O=C(c1cc(Cc2n[nH]c(=O)c3ccccc23)ccc1F)N1CCN(C(=O)C2CC2)CC1`, the viability, T/C by setting is: (compound 0.0316 µM) 99.4% and 111% and 122%; (compound 0.1 µM) 104% and 105% and 95.9%; (compound 0.316 µM) 90.5% and 106% and 98.7%; (compound 1 µM) 92.2% and 107% and 88.4%; (compound 3.16 µM) 108% and 98.6% and 97%; (compound 10 µM) 101% and 106% and 96%. Moreover, the IC50 (curve of compound) is more than 10000 nM.

`O=c1[nH]cc(F)c(=O)[nH]1`: the viability, T/C by setting is: (compound 0.0316 µM) 105% and 101% and 108%; (compound 0.1 µM) 88% and 103% and 95.2%; (compound 0.316 µM) 99.2% and 102% and 99.4%; (compound 1 µM) 69.5% and 66.1% and 91.1%; (compound 3.16 µM) 35.9% and 40.5% and 63.2%; (compound 10 µM) 22.8% and 19.8% and 47.5%. Besides, for the setting “curve of compound”, the concentration for half-maximal inhibition (IC50) is 1950 nM and 2010 nM and 8270 nM.
